From US20110217300A1, “Quinazolinone Compounds and Methods of Use Thereof” (priority 2007, published 2011)

Test system: MDA-MB-231 tumor xenografts
Assay: MDA-MB-231 tumor xenograft efficacy study
Format: in vivo, mice
Experimental: Six weeks old female athymic nude mice (NCR nu/nu) received from Charles River Laboratory, acclimated to the animal housing facility for one week before initiation of the study. Mice were housed in sterile cages of 4 each with autoclaved bedding, provided with autoclaved food and water ad libitum. Efficacy studies were performed in athymic mice bearing MDA-MB-231 tumor xenografts to determine the effect of compound on tumor growth. Tumor cells (5×10^6 MDA-MB-231 cells/animal) were inoculated subcutaneously on day 0. Tumor dimensions were measured three times weekly by a digital microcaliper, and tumor volumes were calculated as length×width^2/2. When tumors reached a volume of ˜100 mm^3, mice were randomized into groups and treated 3× weekly (Monday-Wednesday-Friday, followed by a 2-day dosing holiday) intraperitoneally. With either vehicle control or 3 mg/kg, 6 mg/kg and 12 mg/kg compound formulated in DMA/PEG400/water (4:8:88). Results are expressed as mean tumor volume±SE. To assess differences in tumor size between groups, student's t test was performed and significance was assessed for p values <0.05. Tumor size was evaluated periodically during treatment at the indicated days post-inoculation. Results are represented as the mean of tumor volume in mm^3±SE of several tumors (n=8) in function of the treatment period.
The in vivo activity of N-(3-amino-propyl)-3-chloro-N—[(R)-1-(7-chloro-4-oxo-3-phenylamino-3,4-dihydro-quinazolin-2-yl)-but-3-ynyl]-2-fluoro-benzamide was tested using xenograft models using cell lines as reported in Table 4. The experiments were performed using the general procedures and dosages of Examples 106-108.

How did the tolerability of doses (3 mg/kg, 6 mg/kg or 12 mg/kg intraperitoneally 3x weekly, MDA-MB-231 xenograft mice) turn out when C#CC[C@H](c1nc2cc(Cl)ccc2c(=O)n1Nc1ccccc1)N(CCCN)C(=O)c1cccc(Cl)c1F [Compound 1, N-(3-Amino-propyl)-3-chloro-N—[(R)-1-(7-chloro-4-oxo-3-phenylamino-3,4-dihydro-quinazolin-2-yl)-but-3-ynyl]-2-fluoro-benzamide] was run?
Its tolerability of doses is “well-tolerated”.

What about the “tumor growth compared to the vehicle control group” value (3 mg/kg, 6 mg/kg or 12 mg/kg intraperitoneally 3x weekly, tumors ~100 mm^3 at start, FIG. 2) of the same compound?
Its value is “Significant reductions in tumor growth”.

And the “Xenograft Outcome (approximate percent growth inhibition)” value (MDA-MB-231, Breast, procedures and dosages of Examples 106-108)?
Its value is roughly 80%.
